The source of these data is article PMC8879074, “A Novel Small Molecular Prostaglandin Receptor EP4 Antagonist, L001, Suppresses Pancreatic Cancer Metastasis” (Molecules, 2022).

The structures appear in SMILES notation.

Data set [1] has as its target T1, EP4 (Homo sapiens, UniProt P35408). Nature of the data set: Calcium flux assay, human EP4. The arrangement: expressed in transfected cells; host or cells: CHO-Gα16. The format is cell-based. As to the method: (§1) Calcium flux assay was conducted as described in our previous study. Briefly, CHO-Gα16 cells were transfected, respectively, with human EP1, human EP2, human EP3, human EP4, monkey EP4, mouse EP4 and rat EP4 overexpression constructs using lipofectamine 2000 according to the manufacturer’s manual. Cells were then seeded into a 96-well black plate with a cell density of 2 × 10^4 cells/100 μL per well for a 16-h culture. On the next day, cells were incubated for 45 min with reagents (100 μL/well) of Calcium-5 Assay Kit (Molecular Devices, San Jose, CA, USA). Then, cells were pre-treated with indicated concentrations of L001 for 15 min and stimulated with PGE2 (EC80). The calcium flux was detected subsequently by a Flexstation® 3 Multi-Mode Microplate Reader (Molecular Devices, San Jose, CA, USA).
For orientation: Calcium flux is commonly read through the fluorescence of an indicator in the cells.

The target in data set [2] is T1, EP4. Nature of the data set: cAMP responsive element (CRE) luciferase reporter assay. The format is cell-based. More on the design: host or cells: HEK293 (results) / CHO-K1 (methods). The procedure:
CHO-K1 cells or pancreatic cancer cell lines were transfected with a cAMP responsive element (CRE) reporter or TEAD reporter using lipofectamine 2000 according to the manufacturer’s manual. Transfected cells were treated with varied concentrations of compounds for 24 h. Then, cells were lysed and luciferase activities were determined using Dual-Luciferase Reporter Assay Kit (Promega, Madison, WI, USA).

In a further data set the target is T2, human EP3 (Homo sapiens, UniProt P43115).
T2 construct: expressed in transfected cells; host or cells: CHO-Gα16
T2 sequence (P43115 1-390): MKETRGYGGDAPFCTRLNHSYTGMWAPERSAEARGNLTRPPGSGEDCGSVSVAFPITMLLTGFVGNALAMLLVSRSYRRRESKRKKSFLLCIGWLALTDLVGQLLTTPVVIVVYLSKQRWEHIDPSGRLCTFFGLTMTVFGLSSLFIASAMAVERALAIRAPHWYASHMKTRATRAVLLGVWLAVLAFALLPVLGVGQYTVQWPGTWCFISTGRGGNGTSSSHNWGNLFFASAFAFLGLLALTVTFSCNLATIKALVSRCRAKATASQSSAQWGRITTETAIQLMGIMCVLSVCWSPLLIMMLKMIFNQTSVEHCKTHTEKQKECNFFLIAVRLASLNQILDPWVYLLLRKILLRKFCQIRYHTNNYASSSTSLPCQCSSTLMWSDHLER
In words: Calcium flux assay, human EP3. The following applies: CHO-Gα16 cells, PGE2 (EC80). The format is cell-based. The procedure:
as §1

A further data set concerns Pan02 cells. Nature of the data set: 3D Matrigel tumor spheroid invasion assay, Pan02. The following applies: 0.1 μM PGE2, day 7. The format is cell-based, murine. As to the method:
The 3D Matrigel invasion assay was performed as described. Pan02 and BxPC-3 cells were plated above a layer of Matrigel (ThermoFisher, Shanghai, China) and covered with growth medium containing 10% Matrigel. The culture medium containing different concentrations of compounds was changed every two days. After 7 days, cells with stellate invasive structure were photographed (OLYMPUS, Tokyo, Japan).

For data set [3], the system named is YAP/TEAD reporter in BxPC-3 cells. In words: TEAD-driven luciferase reporter assay, BxPC-3. The format is cell-based, human. The following applies: 16 h. The procedure: CHO-K1 cells or pancreatic cancer cell lines were transfected with a cAMP responsive element (CRE) reporter or TEAD reporter using lipofectamine 2000 according to the manufacturer’s manual. […] Then, cells were lysed and luciferase activities were determined using Dual-Luciferase Reporter Assay Kit (Promega, Madison, WI, USA).
A general note: Reporter assays use an easily measured gene product as a stand-in for the process of interest.

In another data set the target is T3, human EP1 (Homo sapiens, UniProt P34995).
T3 construct: expressed in transfected cells; host or cells: CHO-Gα16
T3 sequence (P34995 1-402): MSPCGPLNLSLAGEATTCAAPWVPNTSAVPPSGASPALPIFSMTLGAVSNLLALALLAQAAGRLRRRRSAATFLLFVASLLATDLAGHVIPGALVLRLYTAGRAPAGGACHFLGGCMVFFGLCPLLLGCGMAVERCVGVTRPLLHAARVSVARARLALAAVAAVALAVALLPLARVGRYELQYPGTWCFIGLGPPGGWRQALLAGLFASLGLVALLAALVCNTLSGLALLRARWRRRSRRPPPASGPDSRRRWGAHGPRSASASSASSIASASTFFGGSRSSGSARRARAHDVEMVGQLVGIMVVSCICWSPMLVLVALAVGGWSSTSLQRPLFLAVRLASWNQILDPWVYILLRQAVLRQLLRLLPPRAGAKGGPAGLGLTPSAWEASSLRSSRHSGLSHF
Nature of the data set: Calcium flux assay, human EP1. The following applies: CHO-Gα16 cells, PGE2 (EC80). The format is cell-based. As to the method:
as §1

The target of a further data set is T4, mouse EP4 (Mus musculus, UniProt P32240).
T4 construct: expressed in transfected cells; host or cells: CHO-Gα16
T4 sequence (P32240 whole entry): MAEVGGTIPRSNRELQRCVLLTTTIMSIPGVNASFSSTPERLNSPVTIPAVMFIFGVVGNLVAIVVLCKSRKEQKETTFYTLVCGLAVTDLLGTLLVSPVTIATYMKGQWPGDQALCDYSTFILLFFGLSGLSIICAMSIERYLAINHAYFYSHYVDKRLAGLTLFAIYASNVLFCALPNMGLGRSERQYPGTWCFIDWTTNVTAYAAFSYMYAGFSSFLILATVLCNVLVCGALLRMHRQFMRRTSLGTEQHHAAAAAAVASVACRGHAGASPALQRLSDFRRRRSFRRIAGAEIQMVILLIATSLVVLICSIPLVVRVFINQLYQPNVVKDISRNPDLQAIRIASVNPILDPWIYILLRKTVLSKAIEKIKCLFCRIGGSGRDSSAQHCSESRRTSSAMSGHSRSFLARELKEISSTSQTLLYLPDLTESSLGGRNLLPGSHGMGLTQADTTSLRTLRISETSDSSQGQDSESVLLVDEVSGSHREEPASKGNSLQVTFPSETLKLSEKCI
Nature of the data set: Calcium flux assay, mouse EP4. The format is cell-based. As to the method: as §1

For the next data set, the system named is ERK1/2 phosphorylation. Nature of the data set: Western blotting of PGE2-induced ERK1/2 phosphorylation. The following applies: pre-incubation 20 min, then 30 nM PGE2 for 5 min; dose-dependent. The format is cell-based. For orientation: A western blot detects proteins with antibodies after separation by electrophoresis.
A short description of data set [4]: Body weight of mice in Pan02-Luc metastasis model. The format is in vivo, C57BL/6 mice. The following applies: L001 75 mg/kg p.o. daily; gemcitabine 25 mg/kg i.p. twice a week; n = 6. The procedure:
Male C57/BL6 mice (6–8 weeks) were obtained from the National Rodent Laboratory Animal Resources (NRLAR, Shanghai, China). All mice were housed according to Institutional Animal Care and Use Committee guidelines and under a protocol approved by East China Normal University Ethics Committee with respect to animal care and welfare assurance. The bioluminescent liver metastasis mouse model was established as described previously. In brief, 2 × 10^6 Pan02/luc cells suspended in 50 μL of PBS were injected into mice spleen. […] Tumor metastasis was monitored by using an in vivo imaging system following intraperitoneal injection with D-Luciferin (2 mg per mouse; Promega). Bioluminescence intensity was recorded every seven days by a Xenogen IVIS-200 Optical in vivo imaging system (PerkinElmer; Waltham, MA, USA) for up to 4 weeks. The mouse body weight was measured every other day. Survival curve analysis was performed using GraphPad Prism 7.

The subject of data set [5] is YAP, CYR61 and CTGF mRNA in Pan02 cells. In words: Real-time qPCR of YAP and YAP target genes, Pan02. The format is cell-based, murine. The following applies: PGE2 0.1 μM, compound 10 μM, 12 h. The procedure:
Total RNA was extracted from cells using TRIzol reagent. The cDNA was synthesized by RT-PCR kit (Vazyme Biotech, Nanjing, China). The band intensity was determined by the gel image analysis system (Bio-Rad, Hercules, CA, USA). SYBR Green-based qPCR (Yeason, Shanghai, China) was conducted subsequently. Relative mRNA levels of target genes were normalized with β-actin. The sequences of primers are listed in Supplementary Table S1. The raw data are listed in Supplementary Table S2.

What is called IC50 is the concentration needed to halve the response being measured.

T1 sequence (P35408 whole entry): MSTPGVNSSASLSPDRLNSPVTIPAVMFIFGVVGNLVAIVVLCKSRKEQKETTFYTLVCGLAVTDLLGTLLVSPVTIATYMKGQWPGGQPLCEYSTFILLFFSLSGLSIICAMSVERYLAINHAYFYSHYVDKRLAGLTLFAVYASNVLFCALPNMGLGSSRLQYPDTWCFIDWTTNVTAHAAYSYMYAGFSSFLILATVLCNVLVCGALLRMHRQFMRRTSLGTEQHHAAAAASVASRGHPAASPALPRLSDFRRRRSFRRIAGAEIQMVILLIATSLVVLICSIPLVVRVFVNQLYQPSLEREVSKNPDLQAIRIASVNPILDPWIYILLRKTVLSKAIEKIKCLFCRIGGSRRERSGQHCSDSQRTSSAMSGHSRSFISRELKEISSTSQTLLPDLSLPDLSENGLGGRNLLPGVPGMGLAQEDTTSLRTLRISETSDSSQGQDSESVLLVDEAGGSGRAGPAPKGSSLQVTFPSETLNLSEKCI

As to `C[C@H](NC(=O)c1c(Cc2cccc(C(F)(F)F)c2)sc2c1CCOC2)c1ccc(C(=O)O)cc1` [L001], the IC50 was 1.47 ± 0.02 nM on EP4 [1]; 7.29 ± 0.64 nM against EP4 [2]; greater than 10000 nM on human EP3; greater than 10000 nM at human EP1; 3.2 ± 0.28 nM on mouse EP4. In addition, the “antagonism efficacy on EP4 compared with E7046” value at EP4 [1] (calcium flux assay) and on EP4 [2] (CRE reporter assay) was “over 5 fold” throughout. Besides, in the data set with Pan02 cells, the “spheroid invasion morphology (filopodium-like protrusions)” value was “completely retracted PGE2-induced membrane surface projections”. Further, the “PGE2-driven YAP/TEAD reporter activity” value in data set [3] is on record as “remarkably suppressed”. Further, in the data set with ERK1/2 phosphorylation, the “PGE2-induced phosphorylation of ERK1/2” value is on record as “significantly blocked”. For the same compound, the body weight loss result in [4] is on record as “barely found”. The “mRNA expression levels of YAP, CYR61 and CTGF induced by PGE2, in comparison with E7046” value in data set [5] was “stronger reductions”.
